Data on two molecules can be found in PMC8192908 (Scientific Reports, 2021).

Like-named read-outs stand apart in the source and are kept apart here.

The test system of data set [1] is mouse bone marrow cells. The conditions noted are these: cited from earlier work.
The subject of a further data set is testicular spermatozoa. Nature of the data set: Twitching motility of testicular spermatozoa. The class given is cell-based, human. The note with it: PTX 1 mM, PTXm-1 0.25 mM; for spermatozoa with twitching motility vs control: increased incubation time (1 h). An excerpt:
Testicular tissue from men diagnosed with prostate cancer and admitted for orchiectomy (N = 8, age 74.33 ± 5.61 years) were collected from Urology operation theater in sterile PBS. The testis was transferred to Petri dish, washed in phosphate buffered solution (PBS) and cut into small pieces. Seminiferous tubule contents were released into the Petri dish containing EBSS medium with 0.1% BSA by milking the seminiferous tubules with the help of with the help of sterile glass slides. The cell suspension was screened for the presence of testicular spermatozoa under inverted microscope (200 × magnification). The cell suspension was divided into four equal parts- (a) Control (C): […] (b) Vehicle control (VC): […] The testicular sperm suspension was processed by discontinuous gradient technique using 40% and 80% density solutions ([…], Germany). The discontinuous gradient column was prepared by adding 1 mL of 80% and 40% gradient solutions sequentially in a sterile test tube. The testicular cell suspension was carefully added above the gradients and centrifuged at 500 g for 20 min. The pellet obtained after centrifugation was further washed by centrifuging at 400 g for 8 min twice.

For data set [2], the system named is Oct4, Sox2, Nanog, Cdx2 in blastocysts. Briefly: mRNA expression of pluripotency and trophectoderm genes in blastocysts. The class given is cell-based, Swiss albino mice. The note with it: PTX 1 mM, PTXm-1 0.25 mM. The protocol:
RNA was extracted from blastocyst stage embryos (30 per group) using an RNA isolation aqueous micro kit (Catalogue No. AM1931; Ambion, Foster City, CA, USA) as explained. Briefly, embryos were lysed using lysis buffer to release total RNA and was eluted using elution buffer. RNA obtained was treated with DNase for 20 min at 37 °C and stored at − 80 °C. cDNA was synthesized using a Superscript first strand cDNA synthesis kit for reverse transcription polymerase chain reaction (Catalogue No. E6300; NewEngland Biolabs, Ipswich, MA, USA).
Quantitative PCR for relative expression of Sox2, Nanog, and Oct4 mRNA was done using StepOne real-time PCR system (Applied Biosystems, California, USA) with TaqMan® Gene Expression Assay probes and TaqMan® Fast Advanced MixThe relative mRNA expression of Cdx2 was also estimated using real-time PCR system with SYBER Green chemistry (TaKaRa, Shiga, Japan, Cat. No. RR420A). All the data were normalized with GAPDH housekeeping gene as an internal control. The relative expression levels were calculated in terms of fold change. The IDs for TaqMan® Gene Expression Assay probes used in this study and the specific primers used for Cdx2 gene and GAPDH housekeeping gene are given in Supplementary Table S1.

The test system of data set [3] is spermatozoa from normozoospermic samples. Nature of the data set: Sperm DNA integrity by TUNEL assay. The conditions noted are these: 24 h in vitro incubation; PTX 1 mM, PTXm-1 0.25 mM; control 6.5%.
The target in the next data set is T1, PDE4D (Homo sapiens, UniProt Q08499).
T1 construct: Catalytic domain of each protein was cloned between BamHI and XhoI restriction sites in; 6xHis-SUMO (N, cleaved yes); made in house; host or cells: E. coli Rosetta 2 (DE3)
Nature of the data set: ITC binding of PTX to the catalytic domain of PDE4D. An excerpt:
Supplementary Materials and Methods
Cloning, expression and purification of catalytic domains of PDE4A, […]
The full length human PDE4A (1005 bp), PDE4D (981 bp) and PDE10A (957 bp) cDNAs, cloned in pET28a(+) expression vector, were purchased from Biomatik, Canada.
Catalytic domain of each protein was cloned between BamHI and XhoI restriction sites in 6x-His-SUMO-tagged bacterial expression vector. The catalytic domain constructs of PDE4A, PDE4D and PDE10A were transformed in E. coli Rosetta 2 (DE3) competent cells for expression. After growing the transformed cells at 37 °C, till the OD 600nm reached 0.5-0.7, the culture containing constructs of PDE4A and PDE4D were induced with 0.1 mM IPTG and the cultures were incubated at 15 °C for 16-18 h, whereas those with PDE10A constructs were induced with 0.5 mM at incubated for 35 -40 h followed by cell harvesting. Harvested cells were suspended in lysis buffer (500 mM NaCl, 50 mM Tris - Cl pH 8.0, 10 mM Imidazole, 3 mM β-mercaptoethanol) and lysed by sonication (Qsonica). The lysates were cleared by centrifugation at 20,000g for 1h and supernatant was passed through Ni-NTA affinity column (His-Trap, GE Healthcare). Eluted proteins were subjected to salt exchange with a buffer containing 100 mM NaCl, 50 mM Tris-Cl pH 8.0, 3 mM β-mercaptoethanol. The collected proteins were further purified using ion - exchange chromatography (Q column, Hi-Trap, GE Healthcare) followed by overnight treatment with ULP1 at 4 °C to cleave 6xHis-SUMO tag. The tag was separated from proteins by a subsequent Ni-NTA purification. The proteins were further purified on size exclusion 16/600 200 pg column (GE Healthcare) pre-equilibrated with a buffer (100 mM […]
NaCl, 50 mM Tris pH 8.0, 5% Glycerol, 3 mM β-mercaptoethanol). After purifying with a gel filtration column, purity was determined on 12% SDS -PAGE and all three proteins […]
concentrated to 20mg/ml, flash cooled with liquid nitrogen and stored at -80°C.
Isothermal titration calorimetry (ITC) binding studies […]
of PDE4A, PDE4D and PDE10A were determined at 25°C, using Affinity ITC (TA instruments). […]

For data set [4], the system named is mouse bone marrow cells. The note with it: cited from earlier work. This is another data set of the same source.
The test system of another data set is human lymphocytes cells. The conditions noted are these: cited from earlier work.
Where [5] appears, read: 15 min after incubation, control 5.06 ± 0.98%.

T1 sequence (Q08499 386-715 limits assumed): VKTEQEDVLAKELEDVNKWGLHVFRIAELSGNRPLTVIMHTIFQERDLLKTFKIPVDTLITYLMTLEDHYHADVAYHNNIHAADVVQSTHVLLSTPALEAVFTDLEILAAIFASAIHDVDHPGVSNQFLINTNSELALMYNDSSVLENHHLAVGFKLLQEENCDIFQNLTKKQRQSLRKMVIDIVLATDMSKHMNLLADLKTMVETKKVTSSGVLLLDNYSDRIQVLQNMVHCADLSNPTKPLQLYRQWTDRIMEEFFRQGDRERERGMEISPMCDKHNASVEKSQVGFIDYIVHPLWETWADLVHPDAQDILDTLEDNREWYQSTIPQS

Consider `CC(=O)CCCCn1c(=O)c2c(ncn2C)n(C)c1=O` [PTX, pentoxifylline], for which the “cytotoxic effect on mouse bone marrow cells” value with mouse bone marrow cells [1] is listed as “do not have any cytotoxic effect”. Besides, the “spermatozoa with twitching motility” value in the data set with testicular spermatozoa (setting [5]) stood at 11.78 ± 1.36%. In addition, the “spermatozoa with twitching motility” value in the data set on testicular spermatozoa (24 h incubation) is reported as 7.90 ± 1.06%. Besides, in the data set with testicular spermatozoa, the “spermatozoa with twitching motility vs control” value is recorded as “significantly higher (P < 0.001)”. Also, the “expression of pluripotency genes in blastocysts” value in data set [2] is given as “did not differ between the groups”. In addition, the “spermatozoa with damaged DNA (TUNEL)” value in data set [3] worked out at 10.25%. On PDE4D, the “change in enthalpy (ΔH)” value is on record as ~ -10.56±1.07 kcal/mol, the “change in entropy (ΔS)” value is given as ~ -16.47 cal/mol.K and the “stoichiometry (N)” value is reported as ~ 0.93±0.07.

On to `COc1ccc2cc(/C=C/C(=O)CCCCn3c(=O)c4c(ncn4C)n(C)c3=O)ccc2c1` [PTXm-1], for which the “genotoxic effect on mouse bone marrow cells in vivo” value in the data set on mouse bone marrow cells [4] was “significantly lower genotoxic effect”. Besides, the “genotoxic effect on human lymphocytes cells in vitro” value in the data set on human lymphocytes cells is reported as “significantly lower genotoxic effect”. For the same molecule, in the data set on mouse bone marrow cells [1] (mouse, in vivo), the “cytotoxic effect on mouse bone marrow cells” value is reported as “do not have any cytotoxic effect”. The “spermatozoa with twitching motility” value is listed as 9.95 ± 0.79% in the data set on testicular spermatozoa (setting [5]) and 13.39 ± 0.65% in the data set with testicular spermatozoa (24 h incubation). Also, the “spermatozoa with twitching motility vs control” value with testicular spermatozoa is recorded as “significantly higher (P < 0.001)”. Further, in data set [2], the “expression of pluripotency genes in blastocysts” value is “did not differ between the groups”.
